We go through 7 compounds from patent US10906946B2, “Thrombin inhibitors” (priority 2015, dated 2021).

This assay addresses T1, human α-thrombin (Homo sapiens, UniProt P00734).
T1 construct: residues in the termini of the light chain; purchased Chemo-Sero-Therapeutic Research Institute (Kaketsuken, Japan), as a gift, not bought
Description: Thrombin amidolytic activity assay with chromogenic substrate S2238. Format: biochemical. The note with it: for Hill slope of thrombin amidolytic inhibition: 0 min pre-incubation where stated; for Hill Slope: Table 2. How it is done: Thrombin amidolytic activity assays for all peptides were performed in 96-wells microtiter plates in 50 mM Tris buffer (pH 7.4) containing 100 mM NaCl and 1 mg/ml bovine serum albumin. […] The rates of formation of p-nitroaniline were followed by measuring the absorbance at 405 nm for 10 min with a Tecan InfinitePro M200 microplate reader from Tecan (Männedorf, Switzerland). Dose-response curves were fitted using the GraphPad Prizm software (San Diego, Calif., USA) to calculate IC50 values and Hill coefficients. To measure the inhibitory constants, different concentrations of S2238 were used and the residual velocities were determined using the Morrison's tight binding equation. Inhibition of thrombin fibrinogenolytic activity of peptides were tested by measuring absorbance at 650 nm using a Sunrise microplate reader from Tecan (Männedorf, Switzerland) as described previously [Koh C Y, et al., J Biol Chem 282: 29101-13 (2007)]. The selectivity of avathrin was examined against 13 serine proteases (FIG. 5). Effects of avathrin on the amidolytic activities of these serine proteases were determined using respective chromogenic substrates. […] Avathrin (150 μM) was incubated with thrombin (5 μM), in 50 mM Tris buffer (pH 7.4) containing 150 mM NaCl and 1 mg/ml BSA. After different incubation times, reactions were quenched with 1% TFA (pH 1.8) and loaded onto a Jupiter Proteo column (4 μm, 90 Å, 100×1.0 mm) attached to a Dionex nano-HPLC system from Thermo Fisher Scientific (Waltham, Mass., USA) and eluted using an acetonitrile gradient with 0.05% TFA and 99.95% MilliQ water as eluent A and 0.05% TFA, 19.95% MilliQ water and 80% ACN as eluent B. Masses of all peaks were measured to identify cleavage products, which were subsequently quantified by integrating the peaks and calculating the area under the curves. To measure the effect of different pre-incubation times on the thrombin inhibitory activity, amidolytic assays were performed for various incubation times (up to 36 h).

Where [1] appears, read: IC50 of inhibition of thrombin amidolytic activity, thrombin 0.81 nM, S2238 100 μM, without pre-incubation (0 min) where stated.
Where [2] appears, read: inhibitory constant Ki for thrombin, thrombin 0.81 nM, various S2238 concentrations.

“And” between values parts separate entries of the source, which are not always exact repeats. Equal entries are not always repeated. Peptide text beside a SMILES is read from it. Bounds are passed on as bounds.

Broadly, the Ki is the equilibrium dissociation constant of an inhibitor or competing ligand from its target. Low values mean tighter binding, high ones weaker binding. As usually defined, the IC50 is the concentration that inhibits the measured activity by half. Lower therefore signals greater potency. In turn, `CC[C@H](C)[C@H](NC(=O)[C@H](CC(=O)O)NC(=O)[C@H](CCC(=O)O)NC(=O)[C@H](Cc1ccccc1)NC(=O)[C@H](CC(=O)O)NC(=O)CNC(=O)CNC(=O)[C@H](CC(C)C)NC(=O)CNC(=O)[C@H](CCCCN)NC(=O)[C@H](CCCNC(=N)N)NC(=O)[C@H](CO)NC(=O)[C@H](CCSC)NC(=O)[C@H](CCCCN)NC(=O)[C@@H]1CCCN1C(=O)[C@@H](NC(=O)[C@H](C)NC(=O)[C@@H](NC(=O)[C@H](Cc1c[nH]cn1)NC(=O)[C@H](CC(=O)O)NC(=O)[C@H](CCC(=O)O)NC(=O)CNC(=O)[C@@H](N)CO)[C@@H](C)O)C(C)C)C(=O)N1CCC[C@H]1C(=O)N1CCC[C@H]1C(=O)N[C@@H](CCC(=O)O)C(=O)N[C@@H](C)C(=O)N[C@@H](Cc1ccc(O)cc1)C(=O)N[C@@H](CCC(=O)O)C(=O)N[C@@H](CCCNC(=N)N)C(=O)N[C@@H](C)C(=O)N[C@@H](CC(C)C)C(=O)N[C@@H](CCC(=O)O)C(=O)N[C@@H](C)C(=O)N[C@@H](CCCNC(=N)N)C(=O)O` [Amblyomma americanum] (H-SGEDHTAVPKMSRKGLGGDFEDIPPEAYERALEAR-OH) returned a Ki (Affinity (nM), Table 4, Ki values) of 1.63 ± 0.61 nM. This compound gave a concentration for half-maximal inhibition (IC50) (IC50 (nM), Table 4, members of variegin family) of 14.29 ± 0.12 nM.

For `CC[C@H](C)[C@H](NC(=O)[C@H](CCCCN)NC(=O)[C@@H]1CCCN1C(=O)[C@@H](NC(=O)[C@H](C)NC(=O)[C@@H](NC(=O)[C@H](CC(=O)O)NC(=O)[C@H](Cc1c[nH]cn1)NC(=O)CNC(=O)[C@H](CC(=O)O)NC(=O)[C@@H](N)CO)[C@@H](C)O)C(C)C)C(=O)N[C@@H](CO)C(=O)N[C@@H](CCCCN)C(=O)N[C@@H](CCC(N)=O)C(=O)NCC(=O)N[C@@H](CC(C)C)C(=O)NCC(=O)NCC(=O)N[C@@H](CC(=O)O)C(=O)N[C@@H](Cc1ccccc1)C(=O)N[C@@H](CCC(=O)O)C(=O)N[C@@H](CCC(=O)O)C(=O)N[C@H](C(=O)N1CCC[C@H]1C(=O)N[C@@H](CO)C(=O)N[C@@H](CC(=O)O)C(=O)N[C@@H](CCC(=O)O)C(=O)N[C@H](C(=O)N[C@H](C(=O)N[C@@H](CCC(=O)O)C(=O)O)[C@@H](C)CC)[C@@H](C)CC)[C@@H](C)CC` [G2D, Q5D] (H-SDGHDTAVPKISKQGLGGDFEEIPSDEIIE-OH), the “fold drop in potency compared with avathrin” value (“fold drop in potency” for short) was less than 2 fold, the “Hill slope of thrombin amidolytic inhibition” value is recorded as 0.71±0.03 and the “Hill Slope” value stood at 0.71 ± 0.03. This compound also showed an IC50 under setting [1] of 13 ± 1.23 nM.

As to `CC[C@H](C)[C@H](NC(=O)[C@H](CCCCN)NC(=O)[C@@H]1CCCN1C(=O)[C@@H](NC(=O)[C@H](C)NC(=O)[C@@H](NC(=O)[C@H](CCC(N)=O)NC(=O)[C@H](Cc1c[nH]cn1)NC(=O)CNC(=O)CNC(=O)[C@@H](N)CO)[C@@H](C)O)C(C)C)C(=O)N[C@@H](CO)C(=O)N[C@@H](CCCCN)C(=O)N[C@@H](CCC(N)=O)C(=O)NCC(=O)N1CCC[C@H]1C(=O)N1CCC[C@H]1C(=O)NCC(=O)N[C@@H](CC(=O)O)C(=O)N[C@@H](Cc1ccccc1)C(=O)N[C@@H](CCC(=O)O)C(=O)N[C@@H](CCC(=O)O)C(=O)N[C@H](C(=O)N1CCC[C@H]1C(=O)N[C@@H](CO)C(=O)N[C@@H](CC(=O)O)C(=O)N[C@@H](CCC(=O)O)C(=O)N[C@H](C(=O)N[C@H](C(=O)N[C@@H](CCC(=O)O)C(=O)O)[C@@H](C)CC)[C@@H](C)CC)[C@@H](C)CC` [L16P, G17P] (H-SGGHQTAVPKISKQGPPGDFEEIPSDEIIE-OH), the “fold drop in potency” value is given as more than 25 fold, the “Hill slope of thrombin amidolytic inhibition” value is reported as 0.54±0.02 and the “Hill Slope” value came to 0.54 ± 0.02. For the same compound, the IC50 under setting [1] came to 181 ± 3.76 nM.

For `CC[C@H](C)[C@H](NC(=O)[C@H](CCCCN)NC(=O)[C@@H]1CCCN1C(=O)[C@@H](NC(=O)[C@H](C)NC(=O)[C@@H](NC(=O)[C@H](CCC(N)=O)NC(=O)[C@H](Cc1c[nH]cn1)NC(=O)CNC(=O)CNC(=O)[C@@H](N)CO)[C@@H](C)O)C(C)C)C(=O)N[C@@H](C)C(=O)N[C@@H](CCCCN)C(=O)N[C@@H](CCC(N)=O)C(=O)NCC(=O)N[C@@H](CC(C)C)C(=O)NCC(=O)NCC(=O)N[C@@H](CC(=O)O)C(=O)N[C@@H](Cc1ccccc1)C(=O)N[C@@H](CCC(=O)O)C(=O)N[C@@H](CCC(=O)O)C(=O)N[C@H](C(=O)N1CCC[C@H]1C(=O)N[C@@H](CO)C(=O)N[C@@H](CC(=O)O)C(=O)N[C@@H](CCC(=O)O)C(=O)N[C@H](C(=O)N[C@H](C(=O)N[C@@H](CCC(=O)O)C(=O)O)[C@@H](C)CC)[C@@H](C)CC)[C@@H](C)CC` [Peptide S12A] (H-SGGHQTAVPKIAKQGLGGDFEEIPSDEIIE-OH; N-terminus and C-terminus assumed), the “fold drop in potency” value is > 10 fold and 20 fold; the “Hill slope of thrombin amidolytic inhibition” value was found to be 0.62±0.01; the “Hill Slope” value is given as 0.62 ± 0.01. The IC50 under setting [1] came out at 101 ± 1.32 nM. Also, under setting [2], the affinity, expressed as Ki, was 6.07 ± 0.18 nM.

On to `CC[C@H](C)[C@H](NC(=O)[C@H](CCCCN)NC(=O)[C@@H]1CCCN1C(=O)[C@@H](NC(=O)[C@H](C)NC(=O)[C@@H](NC(=O)[C@H](CCC(N)=O)NC(=O)[C@H](Cc1c[nH]cn1)NC(=O)CNC(=O)CNC(=O)[C@@H](N)CO)[C@@H](C)O)C(C)C)C(=O)N[C@@H](Cc1c[nH]cn1)C(=O)N[C@@H](CCCCN)C(=O)N[C@@H](CCC(N)=O)C(=O)NCC(=O)N[C@@H](CC(C)C)C(=O)NCC(=O)NCC(=O)N[C@@H](CC(=O)O)C(=O)N[C@@H](Cc1ccccc1)C(=O)N[C@@H](CCC(=O)O)C(=O)N[C@@H](CCC(=O)O)C(=O)N[C@H](C(=O)N1CCC[C@H]1C(=O)N[C@@H](CO)C(=O)N[C@@H](CC(=O)O)C(=O)N[C@@H](CCC(=O)O)C(=O)N[C@H](C(=O)N[C@H](C(=O)N[C@@H](CCC(=O)O)C(=O)O)[C@@H](C)CC)[C@@H](C)CC)[C@@H](C)CC` [Peptide S12H] (H-SGGHQTAVPKIHKQGLGGDFEEIPSDEIIE-OH; N-terminus and C-terminus assumed), for which the “fold drop in potency” value is on record as 2 fold, the “Hill slope of thrombin amidolytic inhibition” value was determined as 0.88±0.02 and the “Hill Slope” value turned out to be 0.88 ± 0.02. In addition, the midpoint of inhibition under setting [1], the IC50, lay at 18.5 ± 0.32 nM. Further, affinity under setting [2] was put at a Ki of 1.23 ± 0.04 nM.

`CC[C@H](C)[C@H](NC(=O)[C@H](C)NC(=O)[C@H](CC(=O)O)NC(=O)[C@H](CC(=O)O)NC(=O)[C@@H]1CCCN1C(=O)[C@@H](NC(=O)[C@H](CCC(=O)O)NC(=O)[C@H](CCC(=O)O)NC(=O)[C@H](Cc1ccccc1)NC(=O)[C@H](CC(=O)O)NC(=O)CNC(=O)[C@@H]1CCCN1C(=O)[C@@H]1CCCN1C(=O)[C@H](C)NC(=O)[C@@H](NC(=O)[C@H](CO)NC(=O)[C@H](Cc1ccc(O)cc1)NC(=O)[C@H](CCSC)NC(=O)[C@H](CCCCN)NC(=O)[C@@H]1CCCN1C(=O)[C@@H](NC(=O)[C@H](C)NC(=O)[C@@H](NC(=O)[C@H](CC(=O)O)NC(=O)CNC(=O)[C@H](CCC(N)=O)NC(=O)[C@H](CC(=O)O)NC(=O)[C@@H](N)CO)C(C)C)[C@@H](C)CC)[C@@H](C)O)[C@@H](C)CC)C(=O)N[C@@H](CCC(=O)O)C(=O)N[C@@H](CCC(=O)O)C(=O)O` [UV003] (H-SDQGDVAIPKMYSTAPPGDFEEIPDDAIEE-OH) returned an IC50 under setting [1] of 0.6 ± 0.2 nM. In addition, under setting [2], the affinity corresponds to a Ki of 0.00421 ± 0.00096 nM.

Take `CC[C@H](C)[C@H](NC(=O)[C@H](C)NC(=O)[C@H](CC(=O)O)NC(=O)[C@H](CC(=O)O)NC(=O)[C@@H]1CCCN1C(=O)[C@@H](NC(=O)[C@H](CCC(=O)O)NC(=O)[C@H](CCC(=O)O)NC(=O)[C@H](Cc1ccccc1)NC(=O)[C@H](CC(=O)O)NC(=O)CNC(=O)[C@@H]1CCCN1C(=O)[C@@H]1CCCN1C(=O)[C@H](C)NC(=O)[C@@H](NC(=O)[C@H](CCCCN)NC(=O)[C@H](Cc1c[nH]cn1)NC(=O)[C@H](CCSC)NC(=O)[C@H](CCCCN)NC(=O)[C@@H]1CCCN1C(=O)[C@H](CCC(=O)O)NC(=O)[C@H](C)NC(=O)[C@H](CCCNC(=N)N)NC(=O)[C@@H](NC(=O)[C@H](C)NC(=O)[C@H](CCC(=O)O)NC(=O)[C@H](CC(=O)O)NC(=O)[C@@H](N)CO)C(C)C)[C@@H](C)O)[C@@H](C)CC)C(=O)N[C@@H](CCC(=O)O)C(=O)N[C@@H](CCC(=O)O)C(=O)O` [UV004] (H-SDEAVRAEPKMHKTAPPGDFEEIPDDAIEE-OH): the IC50 under setting [1] is 0.46 ± 0.08 nM. Moreover, under setting [2], the Ki came out at 0.00455 ± 0.00037 nM.
